# Results from paper PMC6767204, “Synthesis and Biological Evaluation of Disubstituted Pyrimidines as Selective 5-HT2C Agonists” (Molecules, 2019).
# Like-named read-outs stand apart in the source and are kept apart here.
# How the values were obtained:
# [1] = target: T1, 5-HT5A receptor (Homo sapiens, UniProt P47898); experiment: 5-HT receptor radioligand binding affinity assay, 5A
# T1 construct: expressed in transfected cells; host or cells: HEK293 or CHO
# Method: (§1) Eleven dilutions (5 x assay concentration) of the test and reference compounds (Table S1) were prepared in standard binding buffer (50 mM tris(hydroxymethyl)-aminomethane–HCl (Tris-HCl), 10 mM MgCl2, 1 mM ethylenediaminetetraacetate (EDTA), pH 7.4) by serial dilution: 0.05 nM, 0.5 nM, 1.5 nM, 5 nM, 15 nM, 50 nM, 150 nM, 500 nM, 1.5 μM, 5 μM, and 50 μM. The radioligand (Table S1) was diluted to five times the assay concentration in standard binding buffer. Aliquots (50 μL) of the radioligand were dispensed into the wells of a 96-well plate containing 100 μL of standard binding buffer. Triplicate aliquots (50 μL) of the test and reference compound dilutions were then added. Finally, crude membrane fractions (50 μL) of cells (HEK293 or CHO) expressing human recombinant receptors were dispensed into each well. A total 250 μL of the reaction mixtures was incubated at room temperature and shielded from light for 1.5 h, then harvested by rapid filtration onto Whatman GF/B glass fiber filters presoaked with 0.3% polyethyleneimine, by using a 96-well Brandel harvester.
# (§2) Four rapid washes were performed with chilled standard binding buffer (500 μL) to decrease nonspecific binding. Filters were placed in 6 mL scintillation tubes and allowed to dry overnight. The next day, 4 ml of EcoScint scintillation cocktail (National Diagnostics) was added to each tube. The tubes were capped, labeled, and counted by liquid scintillation counting. The filter mats were dried, and the scintillant was melted onto the filters, then the radioactivity retained on the filters was counted in a Microbeta scintillation counter. The IC50 values were obtained by using the Prism 4.0 program (GraphPad Software, San Diego, CA) and converted into Ki values. Each compound was tested in triplicate at least.
# (§3) 3. Radioligands and reference compounds for binding assay
# (§4) Table S1. A list of 5-HT receptor radioligands and reference compounds for binding assay. […]
# [2] = target: T2, 5-HT1B receptor (Homo sapiens, UniProt P28222); experiment: 5-HT receptor radioligand binding affinity assay, 1B
# T2 construct: expressed in transfected cells; host or cells: HEK293 or CHO
# T2 sequence (P28222 whole entry): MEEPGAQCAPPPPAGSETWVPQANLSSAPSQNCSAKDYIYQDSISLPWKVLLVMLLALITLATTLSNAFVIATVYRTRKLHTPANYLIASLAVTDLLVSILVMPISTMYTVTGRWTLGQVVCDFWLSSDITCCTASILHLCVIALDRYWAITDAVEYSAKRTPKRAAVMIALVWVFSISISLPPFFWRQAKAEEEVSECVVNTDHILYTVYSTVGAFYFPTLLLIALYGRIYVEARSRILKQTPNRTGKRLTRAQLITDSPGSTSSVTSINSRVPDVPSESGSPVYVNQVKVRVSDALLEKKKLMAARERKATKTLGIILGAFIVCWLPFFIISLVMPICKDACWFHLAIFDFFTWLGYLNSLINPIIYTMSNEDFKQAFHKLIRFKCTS
# [3] = Plasma stability; format: in vitro ADME; conditions: human plasma, 37 °C
# [4] = target: T3, 5-HT2C receptor (Homo sapiens, UniProt P28335); experiment: 5-HT2C receptor cell-based functional assay (agonist mode, fluorescence-based); conditions: Table 2; serotonin as reference compound
# T3 sequence (P28335 33-458): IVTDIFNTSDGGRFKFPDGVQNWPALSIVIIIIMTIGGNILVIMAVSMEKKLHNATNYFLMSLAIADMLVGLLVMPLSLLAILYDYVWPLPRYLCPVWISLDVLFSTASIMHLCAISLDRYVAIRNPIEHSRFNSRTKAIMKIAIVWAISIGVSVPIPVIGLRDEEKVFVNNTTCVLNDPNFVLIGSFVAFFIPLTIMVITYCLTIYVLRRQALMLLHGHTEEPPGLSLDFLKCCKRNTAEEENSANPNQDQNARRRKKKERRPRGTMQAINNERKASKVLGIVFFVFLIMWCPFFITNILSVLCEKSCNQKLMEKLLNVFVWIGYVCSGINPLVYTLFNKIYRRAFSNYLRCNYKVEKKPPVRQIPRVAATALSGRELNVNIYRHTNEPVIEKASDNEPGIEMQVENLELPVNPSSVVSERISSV
# Method: The synthesized compounds were tested in agonist mode with the 5-HT2C receptor assay using recombinant human HEK-293 cells serviced by either Eurofins Cerep or DGMIF (Daegu-Gyeongbuk Medical Innovation Foundation). All the experiments were duplicated.
# [5] = target: T4, 5-HT3 receptor (Homo sapiens, UniProt P46098); experiment: 5-HT receptor radioligand binding affinity assay, 3; conditions: for SI, selectivity index, 3: subtype Ki divided by 5-HT2C Ki
# T4 construct: expressed in transfected cells; host or cells: HEK293 or CHO
# T4 sequence (P46098 24-478): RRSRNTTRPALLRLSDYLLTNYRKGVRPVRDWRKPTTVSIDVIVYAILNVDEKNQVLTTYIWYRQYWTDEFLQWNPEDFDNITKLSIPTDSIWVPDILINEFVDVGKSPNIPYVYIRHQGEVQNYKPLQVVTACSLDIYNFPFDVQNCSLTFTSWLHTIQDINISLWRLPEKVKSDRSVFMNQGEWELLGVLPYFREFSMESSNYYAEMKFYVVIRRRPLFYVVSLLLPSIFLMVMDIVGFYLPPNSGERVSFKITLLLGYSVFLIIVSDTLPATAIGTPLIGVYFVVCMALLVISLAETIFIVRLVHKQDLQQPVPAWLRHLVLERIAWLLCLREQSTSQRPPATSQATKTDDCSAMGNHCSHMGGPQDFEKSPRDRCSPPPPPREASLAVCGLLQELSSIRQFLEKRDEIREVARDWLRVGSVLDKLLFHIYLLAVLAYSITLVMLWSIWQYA
# Method: as §1, §2, §3
# (§5) Table S1. A list of 5-HT receptor radioligands and reference compounds for binding assay.
# (§6) Receptor subtype Radioligand Reference compound
# (§7) 1A [3H]8-OH-DPAT Methysergide
# (§8) 2A [3H]Ketanserin Chlorpromazine
# (§9) 2C [3H]Mesulergine Chlorpromazine
# [6] = target: T5, 5-HT6 receptor (Homo sapiens, UniProt P50406); experiment: 5-HT receptor radioligand binding affinity assay, 6; conditions: for SI, selectivity index, 6: subtype Ki divided by 5-HT2C Ki
# T5 construct: expressed in transfected cells; host or cells: HEK293 or CHO
# T5 sequence (P50406 whole entry): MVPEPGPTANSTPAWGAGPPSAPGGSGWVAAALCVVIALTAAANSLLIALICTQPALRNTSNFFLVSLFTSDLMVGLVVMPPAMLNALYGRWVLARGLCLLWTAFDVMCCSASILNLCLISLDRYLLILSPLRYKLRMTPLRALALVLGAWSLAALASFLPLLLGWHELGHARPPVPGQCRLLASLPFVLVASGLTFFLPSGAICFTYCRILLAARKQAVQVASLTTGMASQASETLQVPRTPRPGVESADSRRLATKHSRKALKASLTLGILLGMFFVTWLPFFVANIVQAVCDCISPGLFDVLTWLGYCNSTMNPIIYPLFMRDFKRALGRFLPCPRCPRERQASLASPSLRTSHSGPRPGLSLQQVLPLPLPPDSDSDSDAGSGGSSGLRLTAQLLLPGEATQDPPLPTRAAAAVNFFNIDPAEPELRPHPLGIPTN
# Method: as §1, §2, §3, §5, §6, §7, §8, §9
# [7] = target: T6, 5-HT1D receptor (Homo sapiens, UniProt P28221); experiment: 5-HT receptor radioligand binding affinity assay, 1D; conditions: for SI, selectivity index, 1D: subtype Ki divided by 5-HT2C Ki
# T6 construct: expressed in transfected cells; host or cells: HEK293 or CHO
# T6 sequence (P28221 whole entry): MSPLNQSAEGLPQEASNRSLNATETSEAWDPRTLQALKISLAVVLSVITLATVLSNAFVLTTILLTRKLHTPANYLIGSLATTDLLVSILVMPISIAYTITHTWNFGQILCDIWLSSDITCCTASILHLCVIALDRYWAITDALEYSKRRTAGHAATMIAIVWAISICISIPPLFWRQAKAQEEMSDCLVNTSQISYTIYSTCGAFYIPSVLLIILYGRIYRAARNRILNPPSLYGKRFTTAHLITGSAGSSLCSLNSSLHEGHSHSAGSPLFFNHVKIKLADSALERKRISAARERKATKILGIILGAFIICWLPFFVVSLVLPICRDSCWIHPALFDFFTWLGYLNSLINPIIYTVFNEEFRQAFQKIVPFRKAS
# Method: as §1, §2, §3, §5, §6, §7, §8, §9
# [8] = target: T3, 5-HT2C receptor; experiment: 5-HT receptor radioligand binding affinity assay, 2C; design: expressed in transfected cells; conditions: for %Binding at 10 μM, 2C: Table 3; for %binding / Ki: Table 2; for SI, selectivity index, 2C: subtype Ki divided by 5-HT2C Ki
# Method: as §1, §2, §3, §5, §6, §7, §8, §9
# [9] = target: T7, 5-HT2B receptor (Homo sapiens, UniProt P41595); experiment: 5-HT receptor radioligand binding affinity assay, 2B; conditions: for SI, selectivity index, 2B: subtype Ki divided by 5-HT2C Ki
# T7 construct: expressed in transfected cells; host or cells: HEK293 or CHO
# T7 sequence (P41595 whole entry): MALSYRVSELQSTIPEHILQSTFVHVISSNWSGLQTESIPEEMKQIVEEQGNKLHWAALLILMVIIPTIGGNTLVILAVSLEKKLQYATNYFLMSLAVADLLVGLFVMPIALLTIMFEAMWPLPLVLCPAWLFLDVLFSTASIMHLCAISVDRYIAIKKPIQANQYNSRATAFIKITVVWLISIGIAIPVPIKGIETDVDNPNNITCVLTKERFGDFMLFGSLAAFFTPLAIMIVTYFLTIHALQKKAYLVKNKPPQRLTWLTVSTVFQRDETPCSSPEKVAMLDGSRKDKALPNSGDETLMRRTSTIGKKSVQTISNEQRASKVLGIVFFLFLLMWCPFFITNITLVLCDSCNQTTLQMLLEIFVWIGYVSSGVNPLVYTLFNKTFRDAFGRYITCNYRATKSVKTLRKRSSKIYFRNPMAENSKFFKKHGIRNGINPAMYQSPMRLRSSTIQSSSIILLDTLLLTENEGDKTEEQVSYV
# Method: as §1, §2, §3, §5, §6, §7, §8, §9
# [10] = target: T8, 5-HT1E receptor (Homo sapiens, UniProt P28566); experiment: 5-HT receptor radioligand binding affinity assay, 1E
# T8 construct: expressed in transfected cells; host or cells: HEK293 or CHO
# T8 sequence (P28566 whole entry): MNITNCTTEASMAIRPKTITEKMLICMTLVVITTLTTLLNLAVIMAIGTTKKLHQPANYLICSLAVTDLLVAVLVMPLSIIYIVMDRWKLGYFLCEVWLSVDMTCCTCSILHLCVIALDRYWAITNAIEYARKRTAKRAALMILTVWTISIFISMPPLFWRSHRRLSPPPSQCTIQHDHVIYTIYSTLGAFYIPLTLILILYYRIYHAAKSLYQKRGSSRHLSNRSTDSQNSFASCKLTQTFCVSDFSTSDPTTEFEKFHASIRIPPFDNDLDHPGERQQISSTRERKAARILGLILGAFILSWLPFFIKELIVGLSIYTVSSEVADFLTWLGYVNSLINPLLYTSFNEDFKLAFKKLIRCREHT
# Method: as §1, §2, §3, §4
# [11] = target: T9, 5-HT1A receptor (Homo sapiens, UniProt P08908); experiment: 5-HT receptor radioligand binding affinity assay, 1A; conditions: for SI, selectivity index, 1A: subtype Ki divided by 5-HT2C Ki
# T9 construct: expressed in transfected cells; host or cells: HEK293 or CHO
# T9 sequence (P08908 1-422): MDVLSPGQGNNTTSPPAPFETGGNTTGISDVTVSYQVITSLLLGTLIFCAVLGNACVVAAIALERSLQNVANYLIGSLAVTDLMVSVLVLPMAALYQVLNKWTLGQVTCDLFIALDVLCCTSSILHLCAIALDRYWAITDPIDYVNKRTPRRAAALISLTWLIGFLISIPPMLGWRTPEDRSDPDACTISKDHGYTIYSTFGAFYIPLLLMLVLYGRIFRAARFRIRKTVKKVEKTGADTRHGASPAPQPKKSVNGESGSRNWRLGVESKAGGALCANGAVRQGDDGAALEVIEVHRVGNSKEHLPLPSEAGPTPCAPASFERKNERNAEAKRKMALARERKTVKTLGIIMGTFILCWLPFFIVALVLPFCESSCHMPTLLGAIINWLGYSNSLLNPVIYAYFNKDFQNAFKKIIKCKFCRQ
# Method: as §1, §2, §3, §5, §6, §7, §8, §9
# [12] = tested on: five human CYP450 isozymes; experiment: CYP inhibition, all tested isozymes; conditions: all the tested CYP isozymes
# Method: CYP inhibition values against five human CYP450 isozymes were recorded as % remaining activity values of the given isozymes.
# After incubation at 37 °C for 5 min, NADPH generation system solution was also added and incubated at 37 °C for 15 min again. To terminate the reaction, acetonitrile including internal standard (Terfenadine) was added, and the solution was centrifuged for 5 min (14,000 rpm, 4 °C).
# [13] = Microsomal stability; format: in vitro ADME; conditions: pH 7.4, human liver microsomes, read-out: HLM %Remaining @ 1 μM after 0.5 h
# Method: To human liver microsomes (0.5 mg/mL) were added 0.1 M phosphate buffer (pH 7.4) and tested compounds (1 μM).
# [14] = target: T10, 5-HT7 receptor (Homo sapiens, UniProt P34969); experiment: 5-HT receptor radioligand binding affinity assay, 7; conditions: for SI, selectivity index, 7: subtype Ki divided by 5-HT2C Ki
# T10 construct: expressed in transfected cells; host or cells: HEK293 or CHO
# T10 sequence (P34969 whole entry): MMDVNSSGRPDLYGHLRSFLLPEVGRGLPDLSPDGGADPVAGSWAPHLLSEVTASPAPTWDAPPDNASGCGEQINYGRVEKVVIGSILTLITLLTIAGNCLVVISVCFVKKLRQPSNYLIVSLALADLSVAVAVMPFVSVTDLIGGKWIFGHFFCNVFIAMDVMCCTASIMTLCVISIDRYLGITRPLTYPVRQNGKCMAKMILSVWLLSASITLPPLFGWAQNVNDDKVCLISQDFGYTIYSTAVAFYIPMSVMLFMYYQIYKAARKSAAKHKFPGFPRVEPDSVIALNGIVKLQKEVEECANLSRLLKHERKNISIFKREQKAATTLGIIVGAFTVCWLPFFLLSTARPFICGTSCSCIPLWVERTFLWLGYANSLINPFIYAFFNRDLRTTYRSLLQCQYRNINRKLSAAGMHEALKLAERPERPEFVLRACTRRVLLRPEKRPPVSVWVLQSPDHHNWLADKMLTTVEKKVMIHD
# Method: as §1, §2, §3, §5, §6, §7, §8, §9
# [15] = target: T11, 5-HT2A receptor (Homo sapiens, UniProt P28223); experiment: 5-HT receptor radioligand binding affinity assay, 2A; conditions: for SI, selectivity index, 2A: subtype Ki divided by 5-HT2C Ki
# T11 construct: expressed in transfected cells; host or cells: HEK293 or CHO
# T11 sequence (P28223 whole entry): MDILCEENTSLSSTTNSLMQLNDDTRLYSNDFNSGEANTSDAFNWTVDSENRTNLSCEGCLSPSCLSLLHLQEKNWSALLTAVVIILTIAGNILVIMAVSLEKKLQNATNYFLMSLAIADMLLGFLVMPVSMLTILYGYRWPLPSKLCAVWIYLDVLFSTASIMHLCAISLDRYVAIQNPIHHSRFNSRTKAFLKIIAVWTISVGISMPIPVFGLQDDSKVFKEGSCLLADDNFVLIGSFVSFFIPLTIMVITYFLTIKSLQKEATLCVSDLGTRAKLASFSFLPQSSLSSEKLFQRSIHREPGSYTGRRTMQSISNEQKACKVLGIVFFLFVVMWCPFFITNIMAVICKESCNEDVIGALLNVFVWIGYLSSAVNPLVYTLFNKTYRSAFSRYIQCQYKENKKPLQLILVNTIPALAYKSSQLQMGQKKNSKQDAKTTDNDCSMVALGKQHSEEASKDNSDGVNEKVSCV
# Method: as §1, §2, §3, §5, §6, §7, §8, §9
# [16] = target: T11, 5-HT2A receptor; design: method as in PMID 28846591; conditions: Figure 2; cited from earlier work
# T1 sequence (P47898 whole entry): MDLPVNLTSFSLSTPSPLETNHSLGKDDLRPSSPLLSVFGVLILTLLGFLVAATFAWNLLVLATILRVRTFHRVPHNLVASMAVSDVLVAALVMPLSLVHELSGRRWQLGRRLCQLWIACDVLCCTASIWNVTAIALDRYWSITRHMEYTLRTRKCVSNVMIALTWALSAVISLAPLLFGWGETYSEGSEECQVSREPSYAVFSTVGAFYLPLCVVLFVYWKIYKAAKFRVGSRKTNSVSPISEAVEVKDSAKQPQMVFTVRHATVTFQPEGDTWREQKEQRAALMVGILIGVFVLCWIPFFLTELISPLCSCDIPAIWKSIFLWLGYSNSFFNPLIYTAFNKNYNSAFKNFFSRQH
SMILES,"%Binding at 10 μM, 5A [1]","%Binding at 10 μM, 1B [2]",Ki [5],"%Binding at 10 μM, 3 [5]","SI, selectivity index, 3 [5]",Ki [6],"%Binding at 10 μM, 6 [6]","SI, selectivity index, 6 [6]",Ki [7],"%Binding at 10 μM, 1D [7]","SI, selectivity index, 1D [7]",%binding [8],Ki [8],"SI, selectivity index, 2C [8]",Ki [9],"%Binding at 10 μM, 2B [9]","SI, selectivity index, 2B [9]","%Binding at 10 μM, 1E [10]",Ki [11],"%Binding at 10 μM, 1A [11]",further results
"C[C@@H](Oc1nc(N2CCCNCC2)ncc1F)c1cccc(F)c1 [10a, (R)-1-(5-fluoro-4-(1-(3-fluorophenyl)ethoxy)pyrimidin-2-yl)-1,4-diazepane]",22.5 /ND %,56.1%,323 nM,89.0%,40.9,348 nM,50.7%,44.1,679 nM,71.4%,85.9,81.3%,0.0079 µM,1.0,83 nM,98.0%,10.5,43.1 /ND^b %,578 nM,74.1%,"Ki [2]: 3240 nM; SI, selectivity index, 1B ([2]; subtype Ki divided by 5-HT2C Ki): 409.7; remaining at 0.5 h, 10 μM ([3]; 0.5 h, read-out: Plasma Stability %Remaining @ 10 μM after 0.5 h): 99.9%; remaining at 2 h, 10 μM ([3]; 2 h, read-out: Plasma Stability %Remaining @ 10 μM after 2 h): 98%; %activation [4]: 81.0%; %Binding at 10 μM, 2C [8]: 81.3%; selectivity for other 5-HT receptor subtypes, difference in potency ([8]; 5-HT2C versus other 5-HT receptor subtypes): greater than 10 fold; SI, selectivity index, 1A [11]: 73.2; %remaining activity of isozymes [12]: > 60%; remaining at 0.5 h, 1 μM [13]: 96.6%; Ki [14]: 1020 nM; %Binding at 10 μM, 7 [14]: 61.3%; SI, selectivity index, 7 [14]: 128.6; Ki [15]: 1280 nM; %Binding at 10 μM, 2A [15]: 75.5%; SI, selectivity index, 2A [15]: 162.5"
"C[C@@H](Oc1nc(N2CCCNCC2)ncc1F)c1ccc(F)cc1 [10f, (R)-1-(5-fluoro-4-(1-(4-fluorophenyl)ethoxy)pyrimidin-2-yl)-1,4-diazepane]",15.2 /ND %,19.2 /ND^b %,415 nM,88.0%,21.8,467 nM,56.5%,24.6,937 nM,81.3%,49.3,93.9%,0.019 µM,1.0,118 nM,95.0%,6.2,31.3 /ND^b %,1070 nM,67.6%,"%activation [4]: 52.4%; SI, selectivity index, 1A [11]: 56.1; Ki [14]: 616 nM; %Binding at 10 μM, 7 [14]: 55.4%; SI, selectivity index, 7 [14]: 32.4; Ki [15]: 2860 nM; %Binding at 10 μM, 2A [15]: 52.9%; SI, selectivity index, 2A [15]: 150.7"
"C[C@@H]1CNCCN1c1ncc(F)c(O[C@H](C)c2ccc(F)cc2)n1 [compound 8, reference compound]",18.5 /ND^b %,4.9 /ND^b %,543 nM,83.4%,92.0,30 nM,56.7%,5.1,1050 nM,83.4%,178.3,89.0%,0.0059 µM,1.0,38 nM,98.1%,6.4,48.0 /ND^b %,271 nM,89.1%,"Ki [16]: 1.28 µM; %Binding at 10 μM, 2C [8]: 89.0%; SI, selectivity index, 1A [11]: 45.9; Ki [14]: 528 nM; %Binding at 10 μM, 7 [14]: 63.4%; SI, selectivity index, 7 [14]: 89.5; Ki [15]: 511 nM; %Binding at 10 μM, 2A [15]: 85.3%; SI, selectivity index, 2A [15]: 86.6"
